Measurements as given in patent US20100184699A1, “Peptide Derived From Prostate-Related Protein As Cancer Vaccine Candidate For Prostate Cancer Patient Who Is Positive For Hla-A3 Super-Type Allele Molecule” (priority 2005, published 2010).
Several values for one entry are separate records, joined by “and”; a condition that tells them apart may be missing. Equal entries are not always repeated. Where two headings read alike, the source gives them in different places.

Key:
[1] = test system: peptide-specific IgG in plasma of prostate cancer patients and healthy donors; assay: Detection of peptide-specific IgG in plasma by ELISA; type: binding, human; settings: for IgG reactive to peptide in plasma: 1:100-diluted plasma; for frequency of detection of peptide-reactive IgG: plasma of prostate cancer patients, compared within PSA, PAP or PSMA peptides
[2] = test system: C1R-A11, -A31 or -A33 cells pulsed with corresponding peptide; assay: Induction of peptide-specific CTLs from PBMCs (IFN-γ ELISA); type: cell-based, human; settings: for IFN-γ production, HIV peptide background subtracted: day 15, significant values only
[3] = Prostate cancer patient 10, A11
[4] = Prostate cancer patient 14, A33
[5] = Prostate cancer patient 20, A33
[6] = Prostate cancer patient 12, A11
[7] = Prostate cancer patient 17, A33
[8] = Prostate cancer patient 19, A33

QPWQVLVASR (PSA 36-45) [PSA-derived peptide]
IgG reactive to peptide in plasma ([1]; Healthy donor 4, A31): + (IgG reactive to a corresponding peptide was judged to be positive when a difference of the optical density (OD) in a 1:100-diluted plasma was more than 100)
IgG reactive to peptide in plasma ([1]; Healthy donor 12, A31): + (IgG reactive to a corresponding peptide was judged to be positive when a difference of the optical density (OD) in a 1:100-diluted plasma was more than 100)
IgG reactive to peptide in plasma, Total (positive/tested) ([1]; Healthy donors): 2/8
IgG reactive to peptide in plasma, Total (positive/tested) ([1]; Prostate cancer patients): 0/20
frequency of detection of peptide-reactive IgG [1]: less frequently
Total (positive / tested) [2]: 1/13 and 1/9

TLVFRHGDR [PAP 39-47]
IgG reactive to peptide in plasma ([1]; Healthy donor 3, A31): + (IgG reactive to a corresponding peptide was judged to be positive when a difference of the optical density (OD) in a 1:100-diluted plasma was more than 100)
IgG reactive to peptide in plasma ([1]; Healthy donor 9, A11): + (IgG reactive to a corresponding peptide was judged to be positive when a difference of the optical density (OD) in a 1:100-diluted plasma was more than 100)
IgG reactive to peptide in plasma, Total (positive/tested) ([1]; Healthy donors): 2/9
IgG reactive to peptide in plasma ([1]; Prostate cancer patient 4, A31): + (IgG reactive to a corresponding peptide was judged to be positive when a difference of the optical density (OD) in a 1:100-diluted plasma was more than 100)
IgG reactive to peptide in plasma ([1]; Prostate cancer patient 9, A11): + (IgG reactive to a corresponding peptide was judged to be positive when a difference of the optical density (OD) in a 1:100-diluted plasma was more than 100)
IgG reactive to peptide in plasma [1, 3]: + (IgG reactive to a corresponding peptide was judged to be positive when a difference of the optical density (OD) in a 1:100-diluted plasma was more than 100)
IgG reactive to peptide in plasma [1, 4]: + (IgG reactive to a corresponding peptide was judged to be positive when a difference of the optical density (OD) in a 1:100-diluted plasma was more than 100)
IgG reactive to peptide in plasma [1, 5]: + (IgG reactive to a corresponding peptide was judged to be positive when a difference of the optical density (OD) in a 1:100-diluted plasma was more than 100)
IgG reactive to peptide in plasma, Total (positive/tested) ([1]; Prostate cancer patients): 5/20
frequency of detection of peptide-reactive IgG [1]: more frequently
Total (positive / tested) [2]: 3/13 and 7/9

LLGPGRPYR (TRP2-derived peptide) [reference compound]
IFN-γ production, HIV peptide background subtracted ([2]; healthy donor 1, A31): 143 pg/mL
IFN-γ production, HIV peptide background subtracted ([2]; healthy donor 4, A31): 180 pg/mL
IFN-γ production, HIV peptide background subtracted ([2]; healthy donor 6, A33): 90 pg/mL
IFN-γ production, HIV peptide background subtracted ([2]; healthy donor 9, A11): 182 pg/mL
IFN-γ production, HIV peptide background subtracted ([2]; healthy donor 10, A11): 207 pg/mL
IFN-γ production, HIV peptide background subtracted ([2]; healthy donor 14, A11): 94 pg/mL
Total (positive / tested) ([2]; healthy donors): 6/9
IFN-γ production, HIV peptide background subtracted ([2]; prostate cancer patient 9, A11): 155 pg/mL
IFN-γ production, HIV peptide background subtracted ([2]; prostate cancer patient 15, A33): 292 pg/mL
IFN-γ production, HIV peptide background subtracted ([2]; prostate cancer patient 17, A33): 1093 pg/mL
IFN-γ production, HIV peptide background subtracted ([2]; prostate cancer patient 19, A33): 115 pg/mL
IFN-γ production, HIV peptide background subtracted ([2]; prostate cancer patient 22, A31): 115 pg/mL
Total (positive / tested) ([2]; prostate cancer patients): 5/13

VTKFMLCAGR (PSA 192-201) [PSA-derived peptide]
IgG reactive to peptide in plasma, Total (positive/tested) ([1]; Healthy donors): 0/9
IgG reactive to peptide in plasma [1, 3]: + (IgG reactive to a corresponding peptide was judged to be positive when a difference of the optical density (OD) in a 1:100-diluted plasma was more than 100)
IgG reactive to peptide in plasma, Total (positive/tested) ([1]; Prostate cancer patients): 1/20

WVLTAAHCIR [PSA 59-68]
IgG reactive to peptide in plasma, Total (positive/tested) ([1]; Healthy donors): 0/9
IgG reactive to peptide in plasma, Total (positive/tested) ([1]; Prostate cancer patients): 0/20

NVKNLYEKVK (Flu-derived peptide) [reference compound]
Total (positive / tested) [2]: 8/13 and 5/9

PAP 18-28 (FLFLLFFWLDR; UniProt P15309 18-28, looked up, fragment)
IgG reactive to peptide in plasma ([1]; Healthy donor 12, A31): + (IgG reactive to a corresponding peptide was judged to be positive when a difference of the optical density (OD) in a 1:100-diluted plasma was more than 100)
IgG reactive to peptide in plasma, Total (positive/tested) ([1]; Healthy donors): 1/9
IgG reactive to peptide in plasma, Total (positive/tested) ([1]; Prostate cancer patients): 0/20

YPANEYAYRR (PSMA 272-281) [PSMA-derived peptide]
IgG reactive to peptide in plasma, Total (positive/tested) ([1]; Healthy donors): 0/9
IgG reactive to peptide in plasma ([1]; Prostate cancer patient 2, A31): + (IgG reactive to a corresponding peptide was judged to be positive when a difference of the optical density (OD) in a 1:100-diluted plasma was more than 100)
IgG reactive to peptide in plasma ([1]; Prostate cancer patient 4, A31): + (IgG reactive to a corresponding peptide was judged to be positive when a difference of the optical density (OD) in a 1:100-diluted plasma was more than 100)
IgG reactive to peptide in plasma ([1]; Prostate cancer patient 6, A31): + (IgG reactive to a corresponding peptide was judged to be positive when a difference of the optical density (OD) in a 1:100-diluted plasma was more than 100)
IgG reactive to peptide in plasma ([1]; Prostate cancer patient 9, A11): + (IgG reactive to a corresponding peptide was judged to be positive when a difference of the optical density (OD) in a 1:100-diluted plasma was more than 100)
IgG reactive to peptide in plasma [1, 6]: + (IgG reactive to a corresponding peptide was judged to be positive when a difference of the optical density (OD) in a 1:100-diluted plasma was more than 100)
IgG reactive to peptide in plasma [1, 4]: + (IgG reactive to a corresponding peptide was judged to be positive when a difference of the optical density (OD) in a 1:100-diluted plasma was more than 100)
IgG reactive to peptide in plasma [1, 7]: + (IgG reactive to a corresponding peptide was judged to be positive when a difference of the optical density (OD) in a 1:100-diluted plasma was more than 100)
IgG reactive to peptide in plasma [1, 8]: + (IgG reactive to a corresponding peptide was judged to be positive when a difference of the optical density (OD) in a 1:100-diluted plasma was more than 100)
IgG reactive to peptide in plasma, Total (positive/tested) ([1]; Prostate cancer patients): 8/20

VIARYGKVFR (PSMA 201-210) [PSMA-derived peptide]
IgG reactive to peptide in plasma, Total (positive/tested) ([1]; Healthy donors): 0/9
IgG reactive to peptide in plasma ([1]; Prostate cancer patient 4, A31): + (IgG reactive to a corresponding peptide was judged to be positive when a difference of the optical density (OD) in a 1:100-diluted plasma was more than 100)
IgG reactive to peptide in plasma ([1]; Prostate cancer patient 6, A31): + (IgG reactive to a corresponding peptide was judged to be positive when a difference of the optical density (OD) in a 1:100-diluted plasma was more than 100)
IgG reactive to peptide in plasma ([1]; Prostate cancer patient 9, A11): + (IgG reactive to a corresponding peptide was judged to be positive when a difference of the optical density (OD) in a 1:100-diluted plasma was more than 100)
IgG reactive to peptide in plasma [1, 6]: + (IgG reactive to a corresponding peptide was judged to be positive when a difference of the optical density (OD) in a 1:100-diluted plasma was more than 100)
IgG reactive to peptide in plasma ([1]; Prostate cancer patient 16, A33): + (IgG reactive to a corresponding peptide was judged to be positive when a difference of the optical density (OD) in a 1:100-diluted plasma was more than 100)
IgG reactive to peptide in plasma [1, 7]: + (IgG reactive to a corresponding peptide was judged to be positive when a difference of the optical density (OD) in a 1:100-diluted plasma was more than 100)
IgG reactive to peptide in plasma [1, 8]: + (IgG reactive to a corresponding peptide was judged to be positive when a difference of the optical density (OD) in a 1:100-diluted plasma was more than 100)
IgG reactive to peptide in plasma [1, 5]: + (IgG reactive to a corresponding peptide was judged to be positive when a difference of the optical density (OD) in a 1:100-diluted plasma was more than 100)
IgG reactive to peptide in plasma, Total (positive/tested) ([1]; Prostate cancer patients): 7/20

GLPDRPFYR [PSMA 680-688]
IgG reactive to peptide in plasma, Total (positive/tested) ([1]; Healthy donors): 0/9
IgG reactive to peptide in plasma ([1]; Prostate cancer patient 2, A31): + (IgG reactive to a corresponding peptide was judged to be positive when a difference of the optical density (OD) in a 1:100-diluted plasma was more than 100)
IgG reactive to peptide in plasma ([1]; Prostate cancer patient 4, A31): + (IgG reactive to a corresponding peptide was judged to be positive when a difference of the optical density (OD) in a 1:100-diluted plasma was more than 100)
IgG reactive to peptide in plasma ([1]; Prostate cancer patient 6, A31): + (IgG reactive to a corresponding peptide was judged to be positive when a difference of the optical density (OD) in a 1:100-diluted plasma was more than 100)
IgG reactive to peptide in plasma ([1]; Prostate cancer patient 7, A11): + (IgG reactive to a corresponding peptide was judged to be positive when a difference of the optical density (OD) in a 1:100-diluted plasma was more than 100)
IgG reactive to peptide in plasma ([1]; Prostate cancer patient 8, A11): + (IgG reactive to a corresponding peptide was judged to be positive when a difference of the optical density (OD) in a 1:100-diluted plasma was more than 100)
IgG reactive to peptide in plasma ([1]; Prostate cancer patient 9, A11): + (IgG reactive to a corresponding peptide was judged to be positive when a difference of the optical density (OD) in a 1:100-diluted plasma was more than 100)
IgG reactive to peptide in plasma [1, 3]: + (IgG reactive to a corresponding peptide was judged to be positive when a difference of the optical density (OD) in a 1:100-diluted plasma was more than 100)
IgG reactive to peptide in plasma [1, 6]: + (IgG reactive to a corresponding peptide was judged to be positive when a difference of the optical density (OD) in a 1:100-diluted plasma was more than 100)
IgG reactive to peptide in plasma ([1]; Prostate cancer patient 13, A11): + (IgG reactive to a corresponding peptide was judged to be positive when a difference of the optical density (OD) in a 1:100-diluted plasma was more than 100)
IgG reactive to peptide in plasma [1, 4]: + (IgG reactive to a corresponding peptide was judged to be positive when a difference of the optical density (OD) in a 1:100-diluted plasma was more than 100)
IgG reactive to peptide in plasma [1, 5]: + (IgG reactive to a corresponding peptide was judged to be positive when a difference of the optical density (OD) in a 1:100-diluted plasma was more than 100)
IgG reactive to peptide in plasma, Total (positive/tested) ([1]; Prostate cancer patients): 12/20

LYTKVVHYR (PSA 242-250) [PSA-derived peptide]
IgG reactive to peptide in plasma, Total (positive/tested) ([1]; Healthy donors): 0/9
IgG reactive to peptide in plasma, Total (positive/tested) ([1]; Prostate cancer patients): 0/20
